Read-outs that look alike come from different tables or passages of the source.
What was measured:
[1] = 25° C.
[2] = directly compressed, control pressure 10 KN; crystal form prepared in Example 8; FIG. 4
Text: The crystal form prepared in the Example 8 of the present invention was directly compressed by a tableting machine, and the control pressure was 10 KN.

SMILES: CCOc1ccc(Cc2cc([C@@H]3O[C@H](CO)[C@@H](O)[C@H](O)[C@H]3O)ccc2Cl)cc1 [Crystal form E, 2-chloro-5-(β-D-glucopyranosyl-1-yl)-4′-ethoxydiphenylmethane]
- Crystal form (40° C., 0 day): Crystal form E
- Purity (40° C., 0 day): 99.9%
- Crystal form (40° C., 5 days): Crystal form E
- Purity (40° C., 5 days): 99.9%
- Crystal form (40° C., 10 days): Crystal form E
- Purity (40° C., 10 days): 99.9%
- Crystal form (40° C., 30 days): Crystal form E
- Purity (40° C., 30 days): 99.9%
- Crystal form (Lighting (5000 lux), 0 day): Crystal form E
- Purity (Lighting (5000 lux), 0 day): 99.9%
- Crystal form (Lighting (5000 lux), 5 days): Crystal form E
- Purity (Lighting (5000 lux), 5 days): 99.9%
- Crystal form (Lighting (5000 lux), 10 days): Crystal form E
- Purity (Lighting (5000 lux), 10 days): 99.9%
- Crystal form (Lighting (5000 lux), 30 days): Crystal form E
- Purity (Lighting (5000 lux), 30 days): 99.9%
- Time stable (high temperature (40° C.)): at least 30 days
- Time stable (lighting (5000 Lux)): at least 30 days
- Time stable [1]: at least 6 months
- Crystal form ([1]; 0 day): Crystal form E
- Purity ([1]; 0 day): 99.9%
- Crystal form ([1]; 1 month): Crystal form E
- Purity ([1]; 1 month): 99.9%
- Crystal form ([1]; 3 months): Crystal form E
- Purity ([1]; 3 months): 99.9%
- Crystal form ([1]; 6 months): Crystal form E
- Purity ([1]; 6 months): 99.9%
- Crystal form transformation under tableting [2]: didn't undergo crystal form transformation
